Reference: patent US20070250942A1, “Non-human transgenic mammals useful for identifying and assessing neural stem/progenitor cells” (Cold Spring Harbor Laboratory, priority 2006, published 2007)
Structures can show the parent of a compound that is named as a salt.

Columns and labels:
adult dentate gyrus = assay: Fluoxetine effect on neuronal precursor classes in the adult dentate gyrus of nestin-CFPnuc mice (confocal stereology, BrdU labeling); assay type: in vivo, mouse
Experimental: (§1) Immunohistochemistry. Tissues were fixed by transcardial perfusion with 30 ml of 4% (w/v) paraformaldehyde in PBS, pH 7.4. The brains were removed, cut longitudinally into two hemispheres and postfixed for 3 hrs at room temperature, then transferred to PBS and kept at 4° C. Serial sagittal sections, 50-μm thick, were cut with a Vibratome 1500 (Vibratome, St. Louis, Mo.). Immunostaining was carried following the standard procedure. The sections were incubated with primary antibodies to the target protein (see the list below) at 4° C. in PBS containing 0.2% Triton-100X and 3% BSA. After thorough washing with PBS, appropriate secondary antibodies (see the list below) were incubated in the same solution for 1 hr at room temperature. After washing with PBS, the sections were mounted on gelatine coated slides with DakoCytomation Fluorescent Mounting Medium (DakoCytomation, Carpinteria, Calif.). For the analysis of 5-bromo-2-deoxyuridine (BrdU) incorporation, sections were treated with 2M HCl for 30 min at 55° C., washed with PBS, treated with 1 mM sodium tetraborate for 10 min at room temperature, and finally washed with PBS. The following antibodies were used: chicken anti-GFP (Aves Laboratories, Tigard, Oreg.) 1:500; guinea pig anti-GFAP (Advanced Immunochemicals, Long Beach, Calif.) 1:500; mouse anti-nestin (Chemicon International, Temecula, Calif.) 1:100; mouse anti-NeuN (Chemicon) 1:800; rabbit anti Dcx (generous gift from Dr. C. A. Walsh, Harvard Medical School) 1:2500; rabbit anti-Prox I (generous gift from Dr. S. J. Pleasure, UCSF) 1:2000; rat anti-BrdU (Serotec, Raleigh, N.C.) 1:400; mouse anti-PSA-NCAM (Chemicon) 1:400; AlexaFluor 488 goat anti-chicken (Molecular Probes, Willow Creek Road, Eugene, Oreg.) 1:500; AlexaFluor 594 goat anti-mouse (Molecular Probes) 1:500; AlexaFluor 568 goat anti-rat (Molecular Probes) 1:500; Cy5 goat anti-guinea pig (Jackson Immunoresearch, West Grove, Pa.) 1:500; Cy5 goat anti-rabbit (Jackson Immunoresearch) 1:500; Texas Red donkey anti-chicken (Jackson Immunoresearch) 1:500.
(§2) Quantification. Quantitative analysis of cell populations was performed by means of design-based (assumption free, unbiased) stereology. Slices were collected using systematic-random sampling. One brain hemisphere was randomly selected per animal. The hemisphere was sliced sagittaly, in a lateral-to-medial direction, from the beginning until the end of the lateral ventricle, thus including the whole DG. The 50 μm slices, obtained with a 1500 Vibratome (Vibratome, St. Louis, Mo.), were collected in 6 parallel sets (5 in the case of the juvenile mice), each set consisting of 12 slices, each slice 300 μm apart from the next.
(§3) For counts in the DG, all the cells of each type described were counted in every slice, excluding those in the uppermost focal plane. The volume of the reference space (of the granule cell layer (GCL)+the subgranular zone (SGZ)) was calculated by the Cavalieri-point method. In the subventricular zone (SVZ), for BrdU counts, all the BrdU stained cells were counted in each slice, excluding those in the uppermost focal plane. For nestin-CFP cells, the two-stage approach was used. At least 10 optical disectors (20×20×20 μm), placed following a systematic-random manner, were applied on each slice. Then the volume of the space reference (of the SVZ) was estimated using the Cavalieri-point method.
(§4) All the imaging and quantification procedures were performed using a Zeiss LSM 510 confocal microscope and its software. Statistical analysis and graphs of the numeric data were obtained using SigmaPlot software (SYSTAT, Port Richmond, Calif.) and JMP (SAS Institute Inc., Cary, N.C.).
(§5) On the last day a single injection of BrdU, 150 mg/kg was also administered. […] On the last day they were also given a single injection of BrdU, 150 mg/kg. In both sets of experiments, animals were sacrificed either 24 h or 30 days after the end of the treatment and the BrdU injection.

[1] = system: dentate gyrus (DG) of the adult brain; details: cited from earlier work
[2] = exposure of newborn (p4) mice; cited from earlier work
juvenile dentate gyrus = assay: Fluoxetine effect on neuronal precursor classes in the juvenile dentate gyrus of nestin-CFPnuc mice; assay type: in vivo, mouse
Experimental: as §1, §2
In the young animals, all the BrdU cells were counted in each slice, excluding those in the uppermost focal plane. The number of nestin-CFPnuc stained cells, the QNPs, and the ANPs, was estimated using the two-stage approach. At least 5 optical dissectors (20×20×20 μm) placed in a systematic-random manner, were applied to each slice. Then the volume of the space reference (of the SGZ) was estimated using the Cavalieri-point method.
as §4, §5
The action of fluoxetine on stem/progenitor cells was investigated for similarity in both the juvenile and adult brain. […] In the DG of treated juvenile mice, precursor cells can be divided into the same categories as the cells in the adult brain (note that the animals are 20 or 49 days old at the time of analysis). […]

[3] = system: subventricular zone (SVZ); assay: Fluoxetine effect on neurogenesis in the subventricular zone of adult nestin-CFPnuc mice; assay type: in vivo, mouse; details: 15 days treatment
Experimental: as §1, §2, §3
All the imaging and quantification procedures were performed using a Zeiss LSM 510 confocal microscope and its software. […]

[4] = adult, 15 days treatment, 24 h, mean±SEM, n=8
[5] = adult, 15 days treatment, 24 h, n=6
[6] = adult, 15 days treatment, 24 h, vs vehicle
[7] = adult, 15 days treatment, 1 day after BrdU, n=8
[8] = adult, 15 days treatment, sacrificed 30 days later, n=6
[9] = 15 days from p5, 1 day, vs vehicle
[10] = 30 days after end of administration, n=5

Structure (SMILES): CNCCC(Oc1ccc(C(F)(F)F)cc1)c1ccccc1 (stereo not shown) [fluoxetine, fluoxetine hydrochloride]
- increase in number of BrdU-labeled cells in the DG (adult dentate gyrus; 7-month old mice, 10 mg/kg once per day for 15 days, 24 h after BrdU, vs vehicle): 40.9%
- number of BrdU-labeled cells in the DG (adult dentate gyrus; adult, 10 mg/kg/day 15 days, 24 h after BrdU, mean±SEM, n=8): 758±58
- change in Dcx-positive cells (compared with PSA-NCAM-positive cells) (adult dentate gyrus; adult, 15 days treatment, 24 h): Identical changes
- number of ANP cells (adult dentate gyrus; [4]): 5745±506
- number of QNP cells (adult dentate gyrus; [4]): 4675±518
- number of BrdU-labeled ANPs (adult dentate gyrus; [5]): 410±33
- number of BrdU-labeled QNPs (adult dentate gyrus; [5]): 90±16
- number of PSA-NCAM-positive cells (NB1, NB2 and IN) (adult dentate gyrus; adult, 15 days treatment, 24 h, n=8): 11298±719
- change in number of BrdU-labeled QNPs (adult dentate gyrus; [6]): not affected
- change in number of QNP cells (adult dentate gyrus; [6]): no change
- fraction of dividing cells among ANPs (adult dentate gyrus; [6]): did not change
- fraction of dividing cells among QNPs (adult dentate gyrus; [6]): did not change
- increase in number of ANP cells (adult dentate gyrus; [6]): 49.6%
- increase in number of BrdU-labeled ANPs (adult dentate gyrus; [6]): 46.4%
- increase in number of CFPnuc-positive cells (QNPs and ANPs together) (adult dentate gyrus; [6]): 24.7%
- increase in number of PSA-NCAM-positive cells (NB1, NB2 and IN) (adult dentate gyrus; [6]): 26.5±7.2%
- number of IN cells (adult dentate gyrus; [7]): 858±88
- number of NB1 cells (adult dentate gyrus; [7]): 6988±538
- number of NB2 cells (adult dentate gyrus; [7]): 3452±413
- increase in number of NB1 cells (adult dentate gyrus; adult, 15 days treatment, 1 day after BrdU, vs vehicle): 42.1%
- fraction of BrdU+NeuN+ cells among total BrdU-positive cells (adult dentate gyrus; adult, 15 days treatment, sacrificed 30 days later): 92.8±1.6%
- number of BrdU-labeled NeuN-positive neurons (adult dentate gyrus; [8]): 316±29
- number of BrdU-labeled cells in the DG (adult dentate gyrus; [8]): 342±24
- increase in number of BrdU-labeled cells in the DG (adult dentate gyrus; adult, 15 days treatment, sacrificed 30 days later, vs vehicle): 46.2%
- generation of new neurons in the dentate gyrus [1]: increases generation of new neurons
- anxiety when animals become adults [2]: elevated anxiety
- number of ANPs (juvenile dentate gyrus; 15 days from p5, 1 day): 16972±1872
- number of QNPs (juvenile dentate gyrus; 15 days from p5, 1 day): 42048±4328
- number of dividing (BrdU-labeled) ANP cells (juvenile dentate gyrus; 15 days from p5, 1 day): 1698±184
- number of dividing (BrdU-labeled) QNP cells (juvenile dentate gyrus; 15 days from p5, 1 day): 2021±434
- number of nestin-CFPnuc cells (juvenile dentate gyrus; 15 days from p5, 1 day): 61256±4970
- number of BrdU-positive cells in the DG (juvenile dentate gyrus; 15 days from p5, 1 day after BrdU): 9796±834
- change in number of dividing (BrdU-labeled) QNP cells (not statistically significant) (juvenile dentate gyrus; [9]): 28.7%
- fraction of BrdU+NeuN+ cells among total BrdU-positive cells (FIG. 7K BrdU-labeled QNP, FIG. 7L BrdU-labeled ANP) (juvenile dentate gyrus; [9]): did not change
- increase in number of ANPs (juvenile dentate gyrus; [9]): 52.6%
- increase in number of dividing (BrdU-labeled) ANP cells (juvenile dentate gyrus; [9]): 67.7%
- increase in number of nestin-CFPnuc cells (juvenile dentate gyrus; [9]): 35.6%
- change in number of QNPs (did not reach statistical significance) (juvenile dentate gyrus; 15 days from p5, 1 day, vs vehicle, p=0.134): 23.5%
- increase in number of BrdU-positive cells in the DG (juvenile dentate gyrus; 15 days from p5, 30 days after end of administration, vs vehicle): 42.2%
- increase in number of BrdU-positive cells in the DG (juvenile dentate gyrus; 15 days treatment from p5, 1 day after BrdU, vs vehicle): 36.3%
- fraction of BrdU- and NeuN-double-positive cells among total BrdU-positive cells (juvenile dentate gyrus; 30 days after end of administration): 93.6%
- number of BrdU- and NeuN-double-positive cells (juvenile dentate gyrus; [10]): 1892±119
- number of BrdU-positive cells in the DG (juvenile dentate gyrus; [10]): 2026±153
- increase in number of BrdU- and NeuN-double-positive cells (juvenile dentate gyrus; 30 days after end of administration, vs vehicle): 42.3%
- number of BrdU-labeled cells in the SVZ [3]: 9550±769
- number of nestin-CFPnuc cells in the SVZ [3]: 473±55 ×10^3
- volume of the SVZ ([3]; in mm³): 0.603±0.051
- change in number of BrdU-labeled cells in the SVZ ([3]; vs vehicle): No changes
- change in number of nestin-CFPnuc cells, their density and volume of the SVZ ([3]; vs vehicle): no significant changes
